Counter-ions that a name gives are not always drawn.

For series [1] the following is noted: rabbit, in vivo, po, 5 mg/kg, 360 min.
The nature of series [2]: Acute toxicity test, oral route. The settings on record: mouse, in vivo, aqueous solution, groups of three ICR-strain male mice. On the procedure:
The cromoglycic acid derivatives produced in Examples 1, 4, 7, 11 and 12 were administered, each in the form of an aqueous solution, to groups of three ICR-strain male mice by the oral route.

The conditions of series [3]: background statement; cited from earlier work.
The nature of a further series: in vivo. Particulars: rabbit, po, 5 mg/kg.

Usually LD50 stands for the dose expected to kill half of the subjects tested. Lower therefore signals a more toxic substance. For `CCOC(=O)c1cc(=O)c2c(OCC(COc3cccc4oc(C(=O)OCC)cc(=O)c34)OC(=O)CNC(=O)[C@H](C)N)cccc2o1` [Example 7, diethyl N-(L-alanyl)glycylcromoglycate hydrochloride], the “0-6 Hr urinary recovery” value in series [1] turned out to be 21.4%. In series [2], this compound gave an LD50 above 1000 mg/kg.

As for `CCOC(=O)c1cc(=O)c2c(OCC(COc3cccc4oc(C(=O)OCC)cc(=O)c34)OC(=O)[C@H](C)N)cccc2o1` [Example 4, diethyl L-alanylcromoglycate hydrochloride], the “0-6 Hr urinary recovery” value in series [1] was found to be 20.2%. The compound further came in with an LD50 in series [2] above 1000 mg/kg.

Take `CCOCCOC(=O)c1cc(=O)c2c(OCC(COc3cccc4oc(C(=O)OCCOCC)cc(=O)c34)OC(=O)[C@@H](N)CCCCN)cccc2o1` [Example 11, di(2-ethoxyethyl) L-lysylcromoglycate dihydrochloride]: the “0-6 Hr urinary recovery” value in series [1] was found to be 25.4%. Besides, in series [2], the LD50 is above 1000 mg/kg.

On to `CCOCCOC(=O)c1cc(=O)c2c(OCC(COc3cccc4oc(C(=O)OCCOCC)cc(=O)c34)OC(=O)[C@H](C)N)cccc2o1` [Example 12, di(2-ethoxyethyl) L-alanylcromoglycate hydrochloride], for which, in series [1], the “0-6 Hr urinary recovery” value amounted to 21.8%. Moreover, in series [2], the median lethal dose (LD50) was above 1000 mg/kg.

Regarding `CCOC(=O)c1cc(=O)c2c(OCC(COc3cccc4oc(C(=O)OCC)cc(=O)c34)OC(=O)[C@@H](N)CCCCN)cccc2o1` [Example 1, diethyl L-lysylcromoglycate dihydrochloride], the “0-6 Hr urinary recovery” value in series [1] is recorded as 32.6%. The 50% lethal dose (LD50) in series [2] is above 1000 mg/kg.

As to `O=C(O)c1cc(=O)c2c(OCC(O)COc3cccc4oc(C(=O)O)cc(=O)c34)cccc2o1` [Cromoglycic acid], the “absorption in the digestive tract” value in series [3] is “cannot be absorbed in the digestive tract”. The dose excreted at 6 h in “in vivo” was 3.5%.

The values above are taken from patent US4847286A, “Cromoglycic acid derivatives, method of production thereof and pharmaceutical composition” (priority 1985, dated 1989).
